Legend:
Hep3Bx cells [1] = assay: Western blotting of cleaved PARP and cleaved Caspase-3; format: cell-based; conditions: higher concentration
Method: (§1) Western blotting is performed with anti-PARP antibody (1: 1,000, purchased from Cell Signaling) and anti-Caspase-3 antibody (1: 1,000, purchased from Cell Signaling). The anti-Actin antibody (1: 10,000, purchased from Sigma) is used as an internal control.

Hep3B cells [2] = assay: as above; format: cell-based
Method: as §1

[3] = system: wild-type HBV genome-transfected HepG2 cells (group F2); assay: crystal violet assay (FIG. 6c); conditions: 1 μM, 120 hours
Excerpt: (§2) The genome of HBV contains 4 known genes including genes C, X, P and S. To define the role of HBx in cytotoxicity of lapatinib to liver cancer, the plasmids being thankful presents from Dr. Seishi Murakami (J. Virology, 79 (9): 5548-5556, 2005) are used to transiently transfect into the Hep3B cells in the trial (F). […] The plasmid containing an ochre termination signal (CAA to UAA) after codon 7 (at codon 8) in the HBx ORF is used as the group F3. The plasmids are transiently transfected into the Hep3B and HepG2 cells as described above.
(§3) The transfected Hep3B and HepG2 cells are treated with DMSO or 1 μM of lapatinib for 120 hours and the DMSO- or lapatinib-treated cells are analyzed by crystal violet assay.

[4] = system: vector-transfected Hep3B cells (group F1); assay: crystal violet assay (FIG. 6c); conditions: 1 μM, 120 hours
Excerpt: as §2, §3

[5] = system: vector-transfected HepG2 cells (group F1); assay: crystal violet assay (FIG. 6c); conditions: 1 μM, 120 hours
Excerpt: as §2, §3

[6] = system: wild-type HBV genome-transfected Hep3B cells (group F2); assay: crystal violet assay (FIG. 6c); conditions: 1 μM, 120 hours
Excerpt: as §2, §3

[7] = system: HBx-minus mutant-transfected Hep3B cells (group F3); assay: crystal violet assay (FIG. 6c); conditions: 1 μM, 120 hours
Excerpt: as §2, §3

[8] = system: HBx-minus mutant-transfected HepG2 cells (group F3); assay: crystal violet assay (FIG. 6c); conditions: 1 μM, 120 hours
Excerpt: as §2, §3

[9] = system: ErbB3-specific siRNA-treated Hep3Bx cells; assay: crystal violet staining (FIG. 12b); format: cell-based; conditions: ErbB3-specific siRNA-treated Hep3Bx cells compared to control siRNA-treated, 120 hours
Method: (§4) 5 μL of 20 μM siRNA is mixed with 1 μL of the transfection reagent and 100 μL of the medium without FBS. 30 minutes later, the siRNA-containing mixture is added into the medium-discarded Hep3Bx cells with a final volume of 1 mL. After incubating for 5 hours, the FBS containing medium as added to a final volume of 2 mL. The following experiment is performed 4-day posttransfection.
(§5) ErbB3-specific siRNA with a sequence as set forth in SEQ ID NO: 13 is used to silence expression of ErbB3 in the Hep3Bx cells. The control siRNA with a sequence as set forth in SEQ ID NO: 10 is used as a control.

Hep3Bx cells [10] = assay: MTT cytotoxicity assay; format: cell-based; conditions: 72 hours, 0-10 μM
Method: (§6) In the following trials, liver cancer cells including Hep3B, Hep3Bx, HepG2 and HepG2x cells are used. The Hep3Bx and HepG2x cells, derived from the Hep3B and HepG2 cells, respectively, are cell lines constitutively expressing HBx. All of the liver cancer cells are incubated in a 37° C. incubator. DME/F12 with 10% FBS is used as media for incubating the cell lines. Moreover, lapatinib is dissolved in DMSO with different concentration.
(§7) Cytotoxicity of lapatinib to the Hep3B and Hep3Bx cells is monitored using the MTT 3-(4,5-dimethylthiazol-2-yl)-2,5-diphenyltetrazolium bromide assay. First, the Hep3B and Hep3Bx cells are inoculated in a 96-well pate with 5,000-10,000 cells per well. After incubating at 37° C. for 24 hours, 0, 0.1, 0.5, 1, 5 and 10 μM of lapatinib is added into the medium for further incubation at 37° C. for 72 hours, respectively. 0.025 mL of MTT solution ([…] of MTT dissolved in 1 mL of 1×PBS) is added into 0.1 mL of the medium, followed by incubating at 37° C. for 4 hours. Succinate dehydrogenase, bound to the inner mitochondrial membrane of the living cells, is capable of reducing MTT to its insoluble formazan, which has a purple color. Therefore, after removing the supernatants, 0.1 mL of DMSO is added to dissolve the insoluble formazan into a colored solution.

Hep3B cells [11] = assay: MTT cytotoxicity assay; format: cell-based; conditions: 72 hours, 0-10 μM
Method: as §6, §7

[12] = system: HBx-virus transduced Hep3B cells (group E2); assay: cell viability after lapatinib treatment (FIG. 5b); format: cell-based
Excerpt: (§8) In the trial (D) and (E), HBx is introduced into the Hep3B cells via transient transfection and virus transduction, respectively. Cytotoxicity of lapatinib to the HBx-transfected or HBx-virus transduced Hep3B cells is further monitored by the crystal violet assay.
(§9) That is, pDEST-V5 vector is used as a control (group E1) and the HBx plasmid expressing HBx expression protein constructed with primers with sequences set forth in SEQ ID NOs. 7 and 8 is used as the group E2.
(§10) The plasmids are virus transduced into the Hep3B cells as the following procedure: the Hep3B cells are inoculated in 3.5-cm petri dishes with concentration of 2×10^5 cells per petri dish. After incubating for 24 hours, virus with 100 MOI is used to transduce the plasmids into the cultured Hep3B cells. Fresh media are replaced after 16 hours and the following experiments are performed 4 days later.

[13] = system: vector-virus transduced Hep3B cells (group E1); assay: cell viability after lapatinib treatment (FIG. 5b); format: cell-based
Excerpt: as §8, §9, §10

[14] = system: myc-HBx-transfected Hep3B cells (group D2); assay: cell viability after lapatinib treatment (FIG. 4b); format: cell-based
Excerpt: as §8
That is, pcDNA6/myc-His A vector is used as a control (group D1) and the C-terminal myc-tagged HBx plasmid expressing myc-HBx expression protein constructed with primers with sequences set forth in SEQ ID NOs. 5 and 6 is used as the group D2.
(§11) The plasmids are transfected into the Hep3B cells as the following procedure: 1 μg of the plasmids are mixed with 1 μL of TransIT2020 transfection reagent, and the mixture is incubated with the fresh medium without FBS at room temperature for 30 minutes to obtain the vector-transfected Hep3B cells (group D1) and the myc-HBx-transfected Hep3B cells (group D2).

[15] = system: vector-transfected Hep3B cells (group D1); assay: cell viability after lapatinib treatment (FIG. 4b); format: cell-based
[16] = system: ErbB3-transfected Hep3B cells (group K2); assay: cell numbers by light and fluorescence microscopy (FIG. 11b-d); format: cell-based; conditions: 120 hours
Excerpt: That is, pDSRed vector is used as a control (group K1) and the ErbB3 protein-expressing plasmid constructed with primers with sequences set forth in SEQ ID NOs. 11 and 12 is used as the group K2.
Cell numbers of the vector- or ErbB3-transfected Hep3B cells are monitored using a fluorescence microscope with an excitation wavelength of 535 nm. […] The cell number of the lapatinib-treated vector-transfected Hep3B cells divides by the cell number of the DMSO-treated vector-transfected Hep3B cells and the cell number of the lapatinib-treated ErbB3-transfected Hep3B cells divides by the cell number of the DMSO-treated ErbB3-transfected Hep3B cells. As a result, after lapatinib treatment for 120 hours, the quantitative cell viability of ErbB3-transfected Hep3B cells is merely smaller than 20%. That is, ErbB3 transfection induces […] of Hep3B cells to lapatinib.

Hep3Bx cells [17] = assay: sub-G1 phase arrest by PI flow cytometry; format: cell-based; conditions: 120 hours, different concentrations
Method: (§12) The Hep3B and Hep3Bx cells are inoculated in 3.5-cm petri dishes, respectively. After the Hep3B and Hep3Bx cells cover 50 to 60% of the 3.5-cm petri dishes, 3 mL of fresh medium with different concentrations of lapatinib is added, followed by incubation at 37° C. for 120 hours. The cultured Hep3B and Hep3Bx cells are resuspended in 3 mL of 75% ethanol in a concentration of 1.5×10^5 cells per mL and fixed at −20° C. for at least 2 hours. Finally, the fixed Hep3B and Hep3Bx cells are mixed with 0.5 mL of PI buffer at 37° C. for 30 minutes. The sub-G1 phase arresting cells with a DNA content less than 2n, which are usually the result of apoptotic DNA fragmentation are detected and measured by a sub-G1 peak in the fluorescence histogram of flow cytometry.

Hep3B cells [18] = assay: sub-G1 phase arrest by PI flow cytometry; format: cell-based; conditions: 120 hours, different concentrations
Method: as §12

liver cancers = conditions: clinical trial; cited from earlier work
[19] = system: vector-transfected Hep3B cells (group D1); assay: crystal violet staining (FIG. 4c); format: cell-based; conditions: 1 μM, 120 hours
[20] = system: myc-HBx-transfected Hep3B cells (group D2); assay: crystal violet staining (FIG. 4c); format: cell-based; conditions: 1 μM, 120 hours
Method: as §11
Moreover, 1×10^5 cells of the vector-transfected Hep3B cells (group D1) and the myc-HBx-transfected Hep3B cells (group D2) are further treated with 1 μM of lapatinib. Also, DMSO is used to treat the vector-transfected Hep3B cells (group D1) and the myc-HBx-transfected Hep3B cells (group D2) as a solvent control. After culturing at 37° C. for 120 hours, the supernatants are removed and 10 mg/mL of crystal violet solution dissolving in 30% ethanol is added to the cultured Hep3B cells for 15 to 30 minutes. Crystal violet solution can stain the nuclei of the living cells adhering to the petri dishes.

ErbB3 in Hep3Bx cells = assay: siRNA silencing of ErbB3 (FIG. 12a); format: cell-based
Method: as §4, §5

HBx in Hep3Bx cells = assay: siRNA silencing of HBx, Western blotting (FIG. 9e); format: cell-based; conditions: 4-day posttransfection
Method: HBx-specific siRNA with a sequence as set forth in SEQ ID NO: 9 and a control siRNA with a sequence as set forth in SEQ ID NO: 10 are used to further confirm the relationship between HBx and ErbB3 in the Hep3Bx cells.
as §4

With CS(=O)(=O)CCNCc1ccc(-c2ccc3ncnc(Nc4ccc(OCc5cccc(F)c5)c(Cl)c4)c3c2)o1 [lapatinib] the “level of cleaved PARP and cleaved Caspase-3” value (Hep3Bx cells [1]) was “higher level of cleaved PARP and cleaved Caspase-3”, the “level of cleaved PARP and cleaved Caspase-3” value (Hep3B cells [2]) was “does not increase the level of cleaved PARP and cleaved Caspase-3” and the “cytotoxicity (crystal violet assay)” value [3] was “significant cytotoxicity”. The “cytotoxicity (crystal violet assay)” value [4] was “no cytotoxicity”, the “cytotoxicity (crystal violet assay)” value [5] was “slight cytotoxicity” and the “cytotoxicity (crystal violet assay)” value [6] was “obvious cytotoxicity”. For the same compound, the “cytotoxicity (crystal violet assay)” value [7] was “no cytotoxicity”, the “cytotoxicity (crystal violet assay)” value [8] was “slight cytotoxicity” and the “tolerance to lapatinib (crystal violet staining)” value [9] was “intolerance to lapatinib”. For the same compound, the “lapatinib concentration at which cells show intolerance” value (Hep3Bx cells [10]) was “more than 0.1 μM”, the “lapatinib concentration at which cells show intolerance” value (Hep3B cells [11]) was “more than 5 μM” and the cells survival [12] was “about 60%”. The cytotoxicity [12] was “significant cytotoxicity”, the cytotoxicity [13] was “no cytotoxicity” and the “concentration at which lapatinib shows cytotoxicity” value [14] was 1000 nM. The “concentration at which lapatinib shows cytotoxicity” value [15] was 5000 nM, the “cell numbers (light microscopy)” value ([16]; ErbB3-transfected Hep3B cells (group K2), in comparison to vector-transfected cells) was “reduction of cell numbers” and the quantitative cell viability ([16]; ErbB3-transfected Hep3B cells, lapatinib-treated cell number divided by DMSO-treated cell number, fluorescence microscope) was “smaller than 20%”. The sub-G1 phase arrest (Hep3Bx cells [17]) was “the higher the treating concentration is, the more sub-G1 phase arresting cells are observed”, the sub-G1 phase arrest (Hep3B cells [18]) was “does not trigger sub-G1 phase arrest” and the “effectiveness in patients with liver cancers” value (liver cancers) was “effective for only part of patients with liver cancers”. For the same compound, the “cytotoxicity (crystal violet staining)” value [19] was “slight cytotoxicity” and the “cytotoxicity (crystal violet staining)” value [20] was “significant cytotoxicity”.

With “ErbB3-specific siRNA: ErbB3-specific siRNA with a sequence as set forth in SEQ ID NO: 13 (GCGATGCTGAGAACCAATA; listed as DNA, chemistry not given here)” the “mRNA level of ErbB3” value (ErbB3 in Hep3Bx cells) was “decreases mRNA level of ErbB3” and the “protein level of ErbB3” value (ErbB3 in Hep3Bx cells) was “decreased protein level of ErbB3”.

For “HBx-specific siRNA: HBx-specific siRNA with a sequence as set forth in SEQ ID NO: 9 (GGTTAAAGGTCTTTGTATT; listed as DNA, chemistry not given here)”, the “protein level of ErbB3” value (HBx in Hep3Bx cells) was “decreased protein level of ErbB3” and the “protein level of HBx” value (HBx in Hep3Bx cells) was “decreases protein level of HBx”.
